“Also recorded” adds a separate entry of the source.
Columns and labels:
Assay type in all cases: in vivo, human
[1] = tested on: osteoarthritis pain of the knee; experiment: 12-week randomized, double-blind, placebo-controlled trial in osteoarthritis of the knee (WOMAC pain and physical function); details: 3 g twice a day (6 g/day) for 12 weeks, oral, OA of the knee, versus placebo
Description: (§1) In 2005, Applicant commissioned a study to determine the efficacy of dimethyl sulfone in the treatment of pain and physical function impairment due to osteoarthritis. The results of the study are published in Kim, et al, Efficacy of methylsulfonylmethane (MSM) in osteoarthritis pain of the knee: a pilot clinical trial. OsteoArthritis and Cartilage, herein incorporated by reference in its entirety. Patients were given dosage of 6 g of dimethyl sulfone (Distilled MSM microprill (OptiMSM®, Cardinal Nutrition, Vancouver, Wash.)) per day in a stepwise approach. In week 1, dosages started with 2 g/day in two divided doses for 3 days, and then increased to 4 g/day for 4 days. Week 2, increased to 6 g/day. In the control group, a placebo was administered that consisted of inert ingredients and that was indistinguishable in color, size and taste from the dimethyl sulfone.
In a study directed by Applicant or its related affiliate, and as reported in Kim et al (published in 2006), herein incorporated by reference in its entirety, the effects of dimethyl sulfone on OA of the knee were evaluated. Qualified patients (n=50) were as-signed to MSM (n=25) or placebo (n=25) in a 12-week randomized, double-blind, placebo-controlled trial using computer-generated random numbers (FIG. 1).
At week 1, subjects were administered 2 g/day in two divided doses for 3 days, and then increased to 4 g/day for 4 days. […]

homocysteine = experiment: Serum homocysteine measured at baseline and 12 weeks in the 2005 osteoarthritis study; details: 6 g/day, baseline versus 12 weeks, FIG. 2
Description: as §1
(§2) During the 2005 osteoarthritis study, described above, dimethyl sulfone's potential activities were also evaluated. Serum homocysteine, high sensitive C-reactive protein (CRP), erythrocyte sedimentation rate (ESR), and urine malondialdehyde (MDA) were measured at baseline and 12 weeks.
Since dimethyl sulfone is a putative methyl donor, it was believed that dimethyl sulfone may act as a co-factor in reducing homocysteine levels. […]

malondialdehyde (MDA) = experiment: Urine malondialdehyde (MDA) measured at baseline and 12 weeks in the 2005 osteoarthritis study; details: 6 g/day, baseline versus 12 weeks
Description: as §1, §2
The combined decreases in homocysteine and urine MDA during the 2005 osteoarthritis study supports the role of dimethyl sulfone in metabolic processes requiring methylation, such as antioxidant capacities. […]

[2] = 2008 acute oral dosing study, pharmacokinetic blood draws (serum dimethyl sulfone levels)
Description: In a study directed by Applicant or its related affiliate in 2008, six participants received three doses of dimethyl sulfone at three acute test visits spaced one week apart. Subjects were monitored for four hours post dose, with pharmacokinetic (PK) and phamacodynamic blood draws at 0, 45, 90, 135, 180 and 240 minutes post dosing. Subjects also provided a 24-hour post-dose urine collection for assay of dimethyl sulfone and sulfate levels.
Rough estimates have been obtained for the half times of absorption (½ hour) and elimination (8 hours).

[3] = blood draws 0-240 minutes post dosing
[4] = six participants, rough estimate

**Q.** With dimethyl sulfone as the substance, how does the “symptoms of pain and physical function (WOMAC subscales)” value [1] read?
**A.** The value was “produced improvement in two of the three WOMAC subscales, pain and physical function”.

**Q.** And the “symptoms of pain and physical function (WOMAC subscales)” value ([1]; listed as dimethyl sulfone)?
**A.** The value was “improved symptoms of pain and physical function”.

**Q.** And the serum homocysteine levels (homocysteine)?
**A.** The serum homocysteine levels was “significantly decreased; also recorded: decreases”.

**Q.** What about the “urine MDA” value (malondialdehyde (MDA)) of the same substance?
**A.** The value was “decreases”.

**Q.** And the “absorption from the upper gastrointestinal tract (serum level pattern)” value [2, 3]?
**A.** Its value is “fairly rapid absorption from the upper gastrointestinal tract (within an hour)”.

**Q.** And the “elimination from the bloodstream (serum level pattern)” value [2, 3]?
**A.** The value was “slower elimination from the bloodstream (over the course of one or two days)”.

**Q.** What about the “half time of absorption” value [2, 4] of the same substance?
**A.** Its value is “½”.

**Q.** And the “half time of elimination” value [2, 4]?
**A.** The value was roughly 8 h.
